We go through 2 molecules from US9096499B2, “Compounds for treatment of cell proliferative diseases” (Board of Regents, The University of Texas System, priority 2003, dated 2015).

For one assay, the system named is MM-1 MM cells. Description: MTT cell growth and survival assay, MM-1 MM cells. Particulars: 72 hours; for IC50: MTT assay, read-out: IC50 (μM) MM1. The format is cell-based. The protocol: (§1) To determine the effect of AG and WP compounds on MM cell growth/survival, MM cells were incubated with the indicated concentration of AG or WP for 72 hours before cell growth and survival were estimated by MTT assay.
(§2) To determine the effect of AG and WP compounds on MM cell growth/survival MM cells were incubated with the indicated concentration of AG or WP for 72 hours before cell growth and survival were estimated by MTT assay.

Assay [1] has as its system c-myc. The experiment in a line: c-myc protein expression by immunoblot in MM cells. The format is cell-based. Also on record: key to C-Myc: (inhibition = ↓); (no effect) = —. Particulars: for C-Myc: c-myc downregulation, immunoblot. The protocol: To determine the effect of compounds on both Stat3 activation and c-myc protein expression MM-1, OCI-My5 and U266 cells were incubated with 25 μM of AG1801, AG490, WP1038, WP1039, WP1051, or WP1052 for 2 hours before cells were stimulated with 2 ng/ml IL-6 for 10 min. Cell lysates were prepared and immunoblotted for p-Stat3, Stat3, c-myc and actin (as a control).
To determine the temporal effects and mechanism of action of AG490 and AG1801 action on c-myc expression in MM cells, MM-1 cells were incubated with 0, 25, or 50 μM of AG490 or AG1801 and harvested at 30, 60, or 120 min. Lysates were immunoblotted for c-myc or actin as a protein loading control. […] Semi-quantitative PCR was used to measure changes in c-myc mRNA extracted from cells treated for 30 min with AG1801 at 25 μM. GAPDH PCR was used as a control.
These compounds were evaluated for their signal inhibitory and anti-proliferative/apoptotic properties on multiple myeloma, lymphoma and chronic myelogenous leukemia cell lines. WP1015, WP1034, AG1801, and AG490 were tested across a range of concentrations (6,12, and 25 μM) for their ability to inhibit c-myc expression using immunoblots.
These immunoblots tested a range of concentrations (1.56-25 μM for WP compounds) and used β-actin as a control.
(In general: In western blotting, separated proteins are transferred to a membrane and probed.)

Assay [2] deals with human A375 melanoma tumors. Description: A375 melanoma tumors in nude mice. The format is in vivo, Swiss nude mice. Particulars: 40 mg/kg i.p. every other day, 8 injections from day 7, to day 21. The protocol:
The results of animal studies of human A375 melanoma tumors growing in nude mice, treated with WP1066 after tumors reached a palpable size, are shown in FIG. 8. The following animal model was used to evaluate the anti-tumor and anti-cancer effects of the compounds: on Day 0, A375 cells were suspended to 20×10^6 cells/ml in RPMI 1640 medium. On day 0, 0.2 ml of this suspension containing A375 cells was injected (s.c.) into female Swiss nude mice 6-7 weeks of age. On Day 7, 40 mg/kg of WP1066 was injected (i.p.) into the above mice in a 0.1 ml suspension of DMSO/PEG300 (50/50) on a qd, every other day schedule for 8 injections. Five mice per experimental group were used, including a vehicle (DMSO/PEG300) control group. Animals received 40 mg/kg WP1066 every other day […] for a total of 8 injections. The control group reached maximum tumor burden at day 21, and for this reason the experiment was stopped.

For assay [3], the system named is c-myc. The experiment in a line: c-myc protein immunoblot in LP non-Hodgkin lymphoma cells. It is filed as cell-based. The protocol:
Additional cell types were examined for response to treatment with WP1066.
(§3) Further studies were conducted to determine the dose and time dependent effects of these new compounds on IL-6 mediated Stat3 activation, c-myc protein expression and anti-proliferative of LP and other cell types.

Assay [4] relates to Stat3. Description: IL-6 mediated Stat3 activation immunoblot in LP cells. The format is cell-based. Conditions: 3-25 μM. The protocol: as §3
Assay [5] concerns MM-1, Mino, WDT-2, WDT-3, K562, K562-R cell lines. The experiment in a line: Anti-proliferative/apoptotic action on c-myc overexpressing cell lines (FIG. 5). The format is cell-based. Particulars: FIG. 5, incl. Imatinib-resistant K562-R. The text has this: The anti-proliferative/apoptotic actions of WP1066 were also examined on cell lines known to overexpress c-myc. […] Thus WP1066 clearly exerts a potent inhibition of cell proliferation and/or survival in multiple cancer cell lines, and WP1066 will be used as a therapeutic.

The subject of a further assay is c-myc/Stat3. The experiment in a line: Stat3/c-myc inhibitory activity in MM-1 cells (FIG. 7). The format is cell-based. The text has this: An improved inhibition of c-myc/Stat3 by WP1066, WP1130, and WP1129 was observed (FIG. 7). The compounds were compared with regard to their Stat3/c-myc inhibitory activity in MM-1 cells.
The test system of a further assay is OCI MM cells. Description: MTT cell growth and survival assay, OCI MM cells. Conditions: 72 hours. It is filed as cell-based. On the procedure:
as §1, §2

For a further assay, the system named is U266 MM cells. Description: MTT cell growth and survival assay, U266 MM cells. It is filed as cell-based. Conditions: 72 hours. On the procedure: as §1, §2
Assay [6] relates to Stat3. The experiment in a line: IL-6 mediated Stat3 activation (p-Stat3 immunoblot) in MM cells. Also on record: key to P-Stat 3: (inhibition = ↓); (no effect) = —. It is filed as cell-based. On the procedure:
To examine the effect of newly synthesized AG and WP compounds on cytokine-mediated Stat activation, multiple myeloma (MM-1) cells were pretreated with AG490 or AG1801 at 2.5, 12, and 25 μM concentrations (for 2 hr) before stimulating cells with IL-6 or IFN-α for 10 min. Stat3 and Stat1 expression and activation were examined by immunoblotting.
To determine the effect of compounds on both Stat3 activation and c-myc protein expression MM-1, OCI-My5 and U266 cells were incubated with 25 μM of AG1801, AG490, WP1038, WP1039, WP1051, or WP1052 for 2 hours before cells were stimulated with 2 ng/ml IL-6 for 10 min. Cell lysates were prepared and immunoblotted for p-Stat3, Stat3, c-myc and actin (as a control). Both Stat3 activation and c-myc expression were effected by WP and AG compounds.

For assay [7], the system named is MM colonies from bone marrow aspirates of MM patients. The experiment in a line: Primary MM colony formation in methyl-cellulose. It is filed as cell-based, human. Conditions: 25 μM, 7 to 10 days. The protocol:
To determine whether these compounds effect primary MM colony growth bone marrow aspirates from MM patients were partially-purified by magnetic bead separation and analyzed for immunoglobulin heavy-chain gene rearrangement by PCR. Cells were grown as colonies in methyl-cellulose in the presence or absence of AG compound as noted for 7 to 10 days. Control colonies were examined for Ig heavy chain gene rearrangement to confirm the clonal nature of the population.

The next assay has as its system OCI-My5 cells. Description: Caspase activation and PARP cleavage in OCI-My5 cells. It is filed as cell-based. Conditions: 12.5 and 25 μM. The protocol:
To determine whether AG1801 effects caspase activation in MM cells, OCI-My5 cells were treated as described above before cell lysates were examined for casapase activation and PARP cleavage. […] At 12.5 and 25 μM, AG490 was ineffective in caspase activation and PARP clevage in these cells.

The next assay has as its system Jak2/Stat3 signaling. Particulars: literature; cited from earlier work.
For assay [8] the following is noted: literature; cited from earlier work.

Entries after “also recorded” stand apart in the source; their conditions may differ. Some results are limits rather than exact numbers.

As to `C[C@H](NC(=O)/C(C#N)=C/c1cccc(Br)n1)c1ccccc1` [WP 1066], in the assay on MM-1 MM cells, the IC50 was 1.3 µM. For the same molecule, in the assay with c-myc [1] (1.56-25 μM WP compounds, CHX 0-30 min at much higher concentrations), the “Suppression of c-myc protein expression” value is “more active in suppressing c-myc protein expression than WP1015”. Besides, the C-Myc entry in the assay with c-myc [1] is “↓”. In addition, in [2], the “Tumor size / tumor volume in vivo” value is listed as “decrease tumor size; also recorded: reduces tumor volume”. The c-myc expression entry in the assay with c-myc [3] (LP cells, 3-25 μM) is listed as “reduced c-myc expression”. Also, the “Downregulation of c-myc protein” value with c-myc [3] (LP cells, 5, 15, 30, 60 min) is given as “rapid downregulation of c-myc protein”. Besides, in the assay on c-myc [3] (LP cells, 5 min), the “Reduction in c-myc at shortest incubation” value was “strong reduction”. Besides, the “IL-6 mediated Stat3 activation” value in the assay with Stat3 [4] is listed as “blocked IL-6 mediated Stat3 activation; also recorded: slightly better activity than WP1015”. Besides, the “Cell proliferation and/or survival in multiple cancer cell lines” value in assay [5] was “dose-dependent anti-tumor effects; also recorded: effective in reducing cell proliferation”. In the assay on c-myc/Stat3, the “Inhibition of c-myc/Stat3” value is recorded as “Strong inhibition”.

As to `N#C/C(=C\c1ccc(O)c(O)c1)C(=O)NCc1ccccc1` [AG 490, reference compound], the IC50 was above 12.5 µM with OCI MM cells (MTT assay); above 12.5 µM with MM-1 MM cells; above 12.5 µM with U266 MM cells (Homo sapiens, U-266, MTT assay). Moreover, the “Growth and survival of OCI cells (in words)” value in the assay on OCI MM cells (MTT, FIG. 2B/3B) is “effective in reducing the growth and survival”. The “Growth and survival of MM1 cells (in words)” value in the assay with MM-1 MM cells (MTT, FIG. 2A/3A) is “effective in reducing the growth and survival”. Moreover, the “Growth and survival of U266 cells (in words)” value in the assay with U266 MM cells (MTT, FIG. 2C/3C) was “effective in reducing the growth and survival”. The “Inhibition of c-myc protein expression” value in the assay with c-myc [1] (6, 12, 25 μM, AG490 up to 50 μM) is “little or no effect”. The “c-myc expression, temporal effects” value in the assay with c-myc [1] (MM-1 cells, 25 and 50 μM, 30, 60, 120 min) was “completely unable to affect c-myc expression”. In addition, the C-Myc result with c-myc [1] is recorded as “↓”. Besides, in the assay with Stat3 [6] (MM-1 cells, 2 hr pretreatment, 12 and 25 μM, IL-6 10 min), the “Suppression of IL-6 signaling (Stat3 activation)” value was “inactive”. For the same molecule, the “P-Stat 3” value in the assay with Stat3 [6] (Stat3 inhibition, immunoblot) is given as “↓”. Besides, the “P-Stat 3: concentration at which inhibition is seen” value in the assay with Stat3 [6] (immunoblot) is above 25 µM. Besides, the “Inhibition of MM colony formation” value in assay [7] was “less effective”. Moreover, the “Caspase activation (caspase 3 and caspase 8)” value in the assay on OCI-My5 cells is “ineffective”. Moreover, in the assay with OCI-My5 cells, the PARP cleavage result is recorded as “ineffective”. For the same molecule, the “Concentration needed to achieve inhibition of Jak2/Stat3 signaling and anti-tumor effects” value in the assay with Jak2/Stat3 signaling is 50 to 100 µM. Also, the “Activity in animal studies” value in assay [8] is given as “limited activity”.

A word on the IC50: it is the concentration that inhibits the measured activity by half.
